Assay results: PMC12040169 (PLOS Biology, 2025)

Assay: in vitro
Conditions: human, hela cells, % viability

Question: With O=C(CSc1nnc(-c2ccccc2O)o1)c1ccc(Cl)cc1 [CBK068032] as the compound, how does the viability at 28.5 h, 10 µM read?
Answer: 98.4%

Question: With Cc1ccc(C)c2[nH]c(=O)c(CN(Cc3cccnc3)C(=O)NC3CCCCC3)cc12 [CBK068091] as the compound, how does the viability at 28.5 h, 10 µM read?
Answer: 98.2%

Question: Which viability at 28.5 h, 10 µM does the source give for Cc1cccc(-c2nnn(CC(=O)O)n2)c1 [CBK068105] here?
Answer: 102%

Question: For Cc1ccc(S(=O)(=O)N2CCN(C(=O)c3ccco3)CC2)cc1 [CBK068166], which viability at 28.5 h, 10 µM is on record?
Answer: 92.8%

Question: For Cc1ccc2nc(SCC(=O)Nc3ccccc3Br)c(C#N)cc2c1 [CBK068169], which viability at 28.5 h, 10 µM is on record?
Answer: 94.4%

Question: With COc1cccc(-c2nnn(CC(=O)O)n2)c1 [CBK068202] as the compound, how does the viability at 28.5 h, 10 µM read?
Answer: 94.9%

Question: Which viability at 28.5 h, 10 µM does the source give for O=C(c1ccco1)N1CCN(C(=O)c2ccco2)CC1 [CBK068272] here?
Answer: 86.4%

Question: With CCCCOc1ccc(-c2nnn(CC(=O)NCc3ccccc3)n2)cc1 [CBK068557] as the compound, how does the viability at 28.5 h, 10 µM read?
Answer: 96.8%

Question: Which viability at 28.5 h, 10 µM does the source give for CCCCOc1ccc(-c2nnn(C(C)C(=O)OCC)n2)cc1 (stereo not shown) [CBK068558] here?
Answer: 88.6%

Question: With CCn1c(SCC(=O)O)nnc1-c1ccco1 [CBK068633] as the compound, how does the viability at 28.5 h, 10 µM read?
Answer: 86.8%

Question: For CCN(CC)CCN(Cc1cc2ccc(C)cc2[nH]c1=O)C(=O)Nc1ccc(Cl)cc1 [CBK068680], which viability at 28.5 h, 10 µM is on record?
Answer: 84.9%

Question: For COc1ccc2cc(C#N)c(SCC(=O)Nc3ccc(F)cc3)nc2c1 [CBK068765], which viability at 28.5 h, 10 µM is on record?
Answer: 85.7%

Question: For CC(=O)c1ccc(S(=O)(=O)N2CCCCC2C)cc1 (stereo not shown) [CBK069211], which viability at 28.5 h, 10 µM is on record?
Answer: 90%

Question: For c1ccc(CCn2nnnc2CN2CCN(c3ccccc3)CC2)cc1 [CBK069271], which viability at 28.5 h, 10 µM is on record?
Answer: 95.2%

Question: Which viability at 28.5 h, 10 µM does the source give for COc1ccc(-c2nnc(SCC(=O)c3ccccc3)o2)cc1 [CBK069390] here?
Answer: 100%

Question: For CCOC(=O)c1ccc(S(=O)(=O)N2CCCCC2)cc1 [CBK069738], which viability at 28.5 h, 10 µM is on record?
Answer: 106%

Question: Which viability at 28.5 h, 10 µM does the source give for COc1ccc(Cl)cc1NC(=O)C1CCCN1S(=O)(=O)c1ccc(F)cc1 (stereo not shown) [CBK069866] here?
Answer: 108%

Question: Which viability at 28.5 h, 10 µM does the source give for O=C(Cc1ccccc1)N1CCC(c2nc3ccccc3s2)CC1 [CBK070145] here?
Answer: 92.6%

Question: With CC(C)C1OC(NCc2ccc(Cl)cc2)=NC1=O (stereo not shown) [CBK070352] as the compound, how does the viability at 28.5 h, 10 µM read?
Answer: 94.9%

Question: Which viability at 28.5 h, 10 µM does the source give for CC(C)C1OC(NC2CC(C)(C)NC(C)(C)C2)=NC1=O (stereo not shown) [CBK070360T] here?
Answer: 97.1%

Question: With COC(=O)c1ccc(S(=O)(=O)N2CCC(C)CC2)cc1 [CBK070414] as the compound, how does the viability at 28.5 h, 10 µM read?
Answer: 98.1%

Question: Which viability at 28.5 h, 10 µM does the source give for O=C(CSc1nnc(-c2ccncc2)o1)c1ccccc1 [CBK070562] here?
Answer: 87.5%

Question: For CCNC(=O)Nc1ncc(-c2ccccc2)c2cccnc12 [CBK070624], which viability at 28.5 h, 10 µM is on record?
Answer: 95.3%

Question: Which viability at 28.5 h, 10 µM does the source give for CCNC(=O)Nc1ncc(-c2ccc(C(C)(C)C)cc2)c2cccnc12 [CBK070632] here?
Answer: 98.6%

Question: Which viability at 28.5 h, 10 µM does the source give for CCNC(=O)Nc1ncc(-c2cc(OC)c(OC)c(OC)c2)c2cccnc12 [CBK070635] here?
Answer: 83.2%

Question: Which viability at 28.5 h, 10 µM does the source give for CCNC(=O)Nc1ncc(-c2ccc(Oc3ccccc3)cc2)c2cccnc12 [CBK070636] here?
Answer: 104%

Question: Which viability at 28.5 h, 10 µM does the source give for CCNC(=O)Nc1cc2cccnc2nc1-c1cc(F)cc(F)c1 [CBK070638] here?
Answer: 97%

Question: For CCNC(=O)Nc1cc2cccnc2nc1-c1cccc(C(F)(F)F)c1 [CBK070645], which viability at 28.5 h, 10 µM is on record?
Answer: 94.1%

Question: With CCNC(=O)Nc1ccc2ccc(-c3cccnc3)nc2n1 [CBK070652] as the compound, how does the viability at 28.5 h, 10 µM read?
Answer: 85%

Question: With CCNC(=O)Nc1ccc2ccc(-c3ccc(SC)cc3)nc2n1 [CBK070656] as the compound, how does the viability at 28.5 h, 10 µM read?
Answer: 90.9%

Question: Which viability at 28.5 h, 10 µM does the source give for CCNC(=O)Nc1ccc2c(-c3ccc4c(c3)CCO4)ccnc2n1 [CBK070673] here?
Answer: 96.2%

Question: Which viability at 28.5 h, 10 µM does the source give for CCNC(=O)Nc1ccc2c(-c3cccc(C(F)(F)F)c3)ccnc2n1 [CBK070678] here?
Answer: 93.7%

Question: Which viability at 28.5 h, 10 µM does the source give for CCNC(=O)Nc1ncc(-c2ccc(OC(F)(F)F)cc2)c2cccnc12 [CBK070690] here?
Answer: 94%

Question: Which viability at 28.5 h, 10 µM does the source give for CCNC(=O)Nc1cc2cccnc2nc1-c1ccc2c(c1)OCCCO2 [CBK070695] here?
Answer: 97.1%

Question: Which viability at 28.5 h, 10 µM does the source give for CCNC(=O)Nc1ccc2ccc(-c3ccsc3)nc2n1 [CBK070699] here?
Answer: 73.5%

Question: Which viability at 28.5 h, 10 µM does the source give for CN1CCN(c2ccc3ccn(S(=O)(=O)c4ccc([N+](=O)[O-])cc4)c3n2)CC1 [CBK070757C] here?
Answer: 104%

Question: For CN1CCN(CCC(=O)Nc2cccc(Cl)c2)CC1 [CBK070793C], which viability at 28.5 h, 10 µM is on record?
Answer: 108%
